The IC50 is the midpoint of a concentration-inhibition curve.

This experiment addresses T1, CPS1 (Homo sapiens, UniProt P31327).
T1 construct: The full length, human CPS1 gene was cloned into pFastBac HTA; His6 (from the pFastBac HTA vector); made in house; host or cells: SF21 insect cells (baculovirus, Bac-to-bac)
T1 sequence (P31327 39-1500): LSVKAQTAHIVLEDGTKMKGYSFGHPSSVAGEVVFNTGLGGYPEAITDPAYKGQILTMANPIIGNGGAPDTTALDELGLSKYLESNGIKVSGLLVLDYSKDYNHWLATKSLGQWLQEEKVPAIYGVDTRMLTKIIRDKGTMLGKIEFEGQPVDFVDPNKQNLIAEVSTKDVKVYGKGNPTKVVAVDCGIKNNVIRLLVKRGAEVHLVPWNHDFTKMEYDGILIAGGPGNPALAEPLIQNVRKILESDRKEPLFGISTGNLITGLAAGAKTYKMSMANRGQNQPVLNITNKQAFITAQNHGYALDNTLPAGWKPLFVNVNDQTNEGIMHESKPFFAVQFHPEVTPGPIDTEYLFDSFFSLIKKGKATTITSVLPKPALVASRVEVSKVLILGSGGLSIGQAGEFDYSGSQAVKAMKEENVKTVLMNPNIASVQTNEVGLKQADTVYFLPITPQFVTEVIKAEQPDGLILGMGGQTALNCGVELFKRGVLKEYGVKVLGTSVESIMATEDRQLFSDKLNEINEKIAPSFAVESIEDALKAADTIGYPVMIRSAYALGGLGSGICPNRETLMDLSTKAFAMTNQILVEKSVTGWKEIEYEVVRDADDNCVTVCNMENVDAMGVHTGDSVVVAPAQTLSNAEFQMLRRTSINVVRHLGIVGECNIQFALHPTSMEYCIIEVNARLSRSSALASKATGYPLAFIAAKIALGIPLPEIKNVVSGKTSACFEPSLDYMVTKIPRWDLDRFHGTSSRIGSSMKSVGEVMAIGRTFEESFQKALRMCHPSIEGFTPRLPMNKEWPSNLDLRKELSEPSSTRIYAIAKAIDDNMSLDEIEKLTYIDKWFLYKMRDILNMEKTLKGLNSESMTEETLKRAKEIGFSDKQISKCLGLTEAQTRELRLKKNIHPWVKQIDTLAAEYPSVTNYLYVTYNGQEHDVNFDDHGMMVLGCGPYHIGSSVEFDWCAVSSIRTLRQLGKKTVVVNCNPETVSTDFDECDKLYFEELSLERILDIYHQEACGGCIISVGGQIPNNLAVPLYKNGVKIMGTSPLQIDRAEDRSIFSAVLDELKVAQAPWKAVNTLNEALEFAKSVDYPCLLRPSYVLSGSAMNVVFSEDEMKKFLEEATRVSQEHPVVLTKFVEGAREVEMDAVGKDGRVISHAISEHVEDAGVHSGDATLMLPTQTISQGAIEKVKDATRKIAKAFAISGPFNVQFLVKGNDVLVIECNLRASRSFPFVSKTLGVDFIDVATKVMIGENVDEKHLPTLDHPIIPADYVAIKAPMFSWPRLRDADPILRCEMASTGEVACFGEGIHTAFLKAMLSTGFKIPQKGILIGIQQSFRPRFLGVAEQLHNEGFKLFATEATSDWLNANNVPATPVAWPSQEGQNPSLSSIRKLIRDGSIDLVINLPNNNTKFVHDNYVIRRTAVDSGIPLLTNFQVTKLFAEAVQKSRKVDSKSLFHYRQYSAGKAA
Kind of experiment: ADP-Glo endpoint assay measuring the ATPase activity of CPS1. The format is biochemical. The conditions noted are these: geometric mean of a minimum of two values; 50 nM CPS1, 10 μM ATP, 0.2 mM NAG, 60 min at room temperature; read-out: ADPGlo IC50. As to the method: CPS1 was expressed and purified from SF21 insect cells. The full length, human CPS1 gene was cloned into pFastBac HTA and baculovirus was generated using the Bac-to-bac expression system from Invitrogen. P3 virus was used to infect SF21 insect cells at a density of 1.5E6 cells/mL at an MOI of 2. Cells were harvested by centrifugation after 60 hrs and the cell pellet resuspended in lysis buffer (50 mM glycyl glycine pH 7.4, 20 mM KCl, 1 mM TCEP, 10% glycerol and 20 mM imidazole with Roche protease inhibitor tablet) before being lysed with 40 strokes of a Dounce homogenizer on ice. The insoluble fraction of the lysate was then cleared by centrifugation at 30,000 rpm for 30 min. 40 mL of supernatant was mixed with 2 mL of Ni NTA beads for 45 min at 4° C. in a 50 mL conical tube.
The beads were washed with 40 mL of wash buffer (50 mM glycyl glycine pH 7.4, 500 mM NaCl, 1 mM TCEP, 10% glycerol and 50 mM imidazole) by centrifugation and resuspension of the beads three times. Bound CPS1 protein was eluted in 6 mL of elution buffer (50 mM glycyl glycine pH 7.4, 500 mM NaCl, 1 mM TCEP, 10% glycerol and 250 mM imidazole) three times. Elution fractions were combined and concentrated using an Amicon Ultra centrifugation filter with a 10,000 molecular weight cut off. Imidazole was removed by repeated concentration and resuspension in storage buffer in the filter device (50 mM glycyl glycine pH 7.4, 500 mM NaCl, 1 mM TCEP and 20% glycerol). CPS1 was concentrated to a final concentration of ˜3 mg/mL before being aliquoted, flash frozen in liquid nitrogen and stored at −80° C.
CPS1 activity was measured and compounds profiled in an endpoint assay measuring the ATPase activity of CPS1 using the ADP-Glo kit from Promega. 50 nM CPS1 was incubated alone or with varying amounts of tested compound from DMSO stocks in assay buffer (50 mM HEPES pH 7.0, 12.5 mM KHCO3, 1.5 mM (NH4)2SO3, 5 mM MgCl2, 50 mM KCl, 1 mM TCEP, 0.01% TritonX 100, 0.0025% BSA and 0.2 mM NAG) for 20 min in a 3 μL volume in a 384-well plate (Corning Cat#3820). The final concentration of DMSO was 0.04%. The reaction was initiated by the addition of 10 μM ATP, bringing the final volume to 6 μL. After 60 min at room temperature, the reaction was terminated with 3 μL ADP-Glo reagent and incubated at room temperature for 30 min. 3 μL of kinase detection reagent was then added and luminescent signal measured on an Envision plate reader after 30 min.
(In ADP-Glo the light output rises with the ADP produced.)
Regarding `COc1ccc(C(=O)N2[C@H](C)CN(C(=O)c3ccc(OC(F)(F)F)cc3F)C[C@H]2C)c(F)c1` [Compound 1, ((2R,6R)-4-(2-Fluoro-4-(trifluoromethoxy)benzoyl)-2,6-dimethylpiperazin-1-yl)(2-fluoro-4-methoxyphenyl)methanone], the IC50 worked out at 672 nM.
To `COc1ccc(C(=O)N2[C@H](C)CN(C(=O)c3ccc(OC)c(F)c3F)C[C@H]2C)c(F)c1` [Compound 2, ((2R,6R)-4-(2,3-Difluoro-4-methoxybenzoyl)-2,6-dimethylpiperazin-1-yl)(2-fluoro-4-methoxyphenyl)methanone] belongs 427 nM.
As to `COc1ccc(C(=O)N2[C@H](C)CN(C(=O)c3ccc4cc[nH]c4c3)C[C@H]2C)c(F)c1` [Compound 3, ((2R,6R)-4-(1H-Indole-6-carbonyl)-2,6-dimethylpiperazin-1-yl)(2-fluoro-4-methoxyphenyl)methanone], the IC50 worked out at 127 nM.
With `COc1ccc(C(=O)N2[C@H](C)CN(C(=O)c3ccc(OC)c(F)c3)C[C@H]2C)c(F)c1` [Compound 4, ((2R,6R)-4-(3-Fluoro-4-methoxybenzoyl)-2,6-dimethylpiperazin-1-yl)(2-fluoro-4-methoxyphenyl)methanone], the half-maximal inhibitory concentration (IC50) came out at 545 nM.
To `CCOc1ccc(C(=O)N2C[C@@H](C)N(C(=O)c3ccc(OC)cc3F)[C@H](C)C2)c(F)c1` [Compound 5, ((2R,6R)-4-(4-Ethoxy-2-fluorobenzoyl)-2,6-dimethylpiperazin-1-yl)(2-fluoro-4-methoxyphenyl)methanone] belongs 139 nM.
With `COc1ccc(C(=O)N2[C@H](C)CN(C(=O)c3ccc4c(c3)N(C)CC4)C[C@H]2C)c(F)c1` [Compound 6, ((2R,6R)-2,6-Dimethyl-4-(1-methylindoline-6-carbonyl)piperazin-1-yl)(2-fluoro-4-methoxyphenyl)methanone] the figure was 7670 nM; with `COc1ccc(C(=O)N2[C@H](C)CN(C(=O)c3ccc4cc(C)[nH]c4c3)C[C@H]2C)c(F)c1` [Compound 7, ((2R,6R)-2,6-Dimethyl-4-(2-methyl-1H-indole-6-carbonyl)piperazin-1-yl)(2-fluoro-4-methoxyphenyl)methanone], 171 nM.
Take `COc1ccc(C(=O)N2[C@H](C)CN(C(=O)c3ccc(NC(C)=O)cc3F)C[C@H]2C)c(F)c1` [Compound 8, N-(3-Fluoro-4-((3R,5R)-4-(2-fluoro-4-methoxybenzoyl)-3,5-dimethylpiperazine-1-carbonyl)phenyl)acetamide]: the IC50 amounted to 2780 nM.
With `COc1ccc(C(=O)N2[C@H](C)CN(C(=O)c3ccc(OC(F)F)cc3F)C[C@H]2C)c(F)c1` [Compound 9, ((2R,6R)-4-(4-(Difluoromethoxy)-2-fluorobenzoyl)-2,6-dimethylpiperazin-1-yl)(2-fluoro-4-methoxyphenyl)methanone] the figure was 190 nM.
Take `COc1ccc(C(=O)N2[C@H](C)CN(C(=O)c3cc(F)c(OC)cc3F)C[C@H]2C)c(F)c1` [Compound 10, ((2R,6R)-4-(2,5-Difluoro-4-methoxybenzoyl)-2,6-dimethylpiperazin-1-yl)(2-fluoro-4-methoxyphenyl)methanone]: the IC50 was 710 nM.
To `COc1ccc(C(=O)N2[C@H](C)CN(C(=O)c3ccc(OC)cc3Cl)C[C@H]2C)c(F)c1` [Compound 11, ((2R,6R)-4-(2-Chloro-4-methoxybenzoyl)-2,6-dimethylpiperazin-1-yl)(2-fluoro-4-methoxyphenyl)methanone] belongs 2810 nM; to `COc1ccc(C(=O)N2[C@H](C)CN(C(=O)c3ccc(F)cc3F)C[C@H]2C)c(F)c1` [Compound 12, ((2R,6R)-4-(2,4-Difluorobenzoyl)-2,6-dimethylpiperazin-1-yl)(2-fluoro-4-methoxyphenyl)methanone], 2590 nM.
With `COc1ccc(C(=O)N2[C@H](C)CN(C(=O)c3ccc4c[nH]nc4c3)C[C@H]2C)c(F)c1` [Compound 13, ((2R,6R)-4-(2H-Indazole-6-carbonyl)-2,6-dimethylpiperazin-1-yl)(2-fluoro-4-methoxyphenyl)methanone] the figure was 711 nM; with `COc1ccc(C(=O)N2[C@H](C)CN(C(=O)c3ccc(C)cc3F)C[C@H]2C)c(F)c1` [Compound 14, ((3R,5R)-4-(2-Fluoro-4-methoxybenzoyl)-3,5-dimethylpiperazin-1-yl)(2-fluoro-4-methylphenyl)methanone], 2200 nM; with `COc1ccc(C(=O)N2[C@H](C)CN(C(=O)c3c(F)cc(OC)cc3F)C[C@H]2C)c(F)c1` [Compound 15, ((2R,6R)-4-(2,6-Difluoro-4-methoxybenzoyl)-2,6-dimethylpiperazin-1-yl)(2-fluoro-4-methoxyphenyl)methanone], 420 nM.
With `COc1ccc(C(=O)N2[C@H](C)CN(C(=O)c3c(F)cc(SC)cc3F)C[C@H]2C)c(F)c1` [Compound 16, ((2R,6R)-4-(2,6-Difluoro-4-(methylthio)benzoyl)-2,6-dimethylpiperazin-1-yl)(2-fluoro-4-methoxyphenyl)methanone] the figure was 552 nM; with `COc1ccc(C(=O)N2[C@H](C)CN(C(=O)c3cc(Cl)c4cc[nH]c4c3)C[C@H]2C)c(F)c1` [Compound 17, (4-Chloro-1H-indol-6-yl)((3R,5R)-4-(2-fluoro-4-methoxybenzoyl)-3,5-dimethylpiperazin-1-yl)methanone], 526 nM.
For the molecule `COc1ccc(C(=O)N2[C@H](C)CN(C(=O)c3ccc4c(c3)CCCO4)C[C@H]2C)c(F)c1` [Compound 18, Chroman-6-yl((3R,5R)-4-(2-fluoro-4-methoxybenzoyl)-3,5-dimethylpiperazin-1-yl)methanone], the IC50 is 5870 nM.
As to `COc1ccc(C(=O)N2[C@H](C)CN(C(=O)c3ccc4cc[nH]c4n3)C[C@H]2C)c(F)c1` [Compound 19, ((2R,6R)-2,6-Dimethyl-4-(1H-pyrrolo[2,3-b]pyridine-6-carbonyl)piperazin-1-yl)(2-fluoro-4-methoxyphenyl)methanone], the half-inhibitory concentration (IC50) was 3280 nM.
